{"source": "paper PMC7822874", "about": "“Chemoprotective antimalarials identified through quantitative high-throughput screening of Plasmodium blood and liver stage parasites” (Scientific Reports, 2021)", "key": {"[1]": {"tested_on": "T1, Plasmodium falciparum Dd2-attB (parental line), asexual blood stages", "T1 construct": "Dd2-attB, the isogenic parental line", "assay": "microbe, parasite or virus in culture", "parameters": "replicate k of 3 (each line is one of three independent assays; the three lines of one compound and parasite line follow each other)", "conditions": "n = 1; for Individual replicates / Log AC50 (M): 72 h; for AC50: Plasmodium falciparum, DD2, 72 h, read-out: Individual replicates / Log AC50 (converted)", "method_in_brief": "(§1)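 Only some compounds were profiled here. Each was assayed three independent times against the Dd2-attB parent and its yeast-DHODH-overexpressing derivative.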"}, "[2]": {"tested_on": "T2, Plasmodium falciparum Dd2-attB-ScDHODH (transgenic line expressing yeast DHODH), asexual blood stages", "T2 construct": "Dd2-attB-ScDHODH, the transgenic line that expresses yeast DHODH", "assay": "organism not typed", "parameters": "replicate k of 3 (each line is one of three independent assays; the three lines of one compound and parasite line follow each other)", "conditions": "72 h, n = 1; for AC50: read-out: Individual replicates / Log AC50 (converted)", "method_in_brief": "as §1"}, "[3]": {"tested_on": "T1, Plasmodium falciparum Dd2-attB (parental line), asexual blood stages", "assay": "microbe, parasite or virus in culture", "parameters": "species or system P. falciparum Dd2-attB in human erythrocytes; SYBR Green-I proliferation assay, Dd2-attB parental line, asexual blood stages", "conditions": "72 h; for AC50: Plasmodium falciparum, DD2, Erythrocyte, read-out: Calculated / Average Log AC50 (M), mean of replicates, 72 h (converted); for Calculated / Average Log AC50 (M): mean of replicates, inhibitor"}, "[4]": {"tested_on": "P. falciparum Dd2 (clone B2) asexual blood stage parasites", "assay": "P. falciparum Dd2 asexual blood stage SYBR Green-I 72 h proliferation assay (qHTS)", "format": "cell-based, Plasmodium falciparum", "conditions": "Plasmodium falciparum, DD2, Dd2 parental; Hill fit, averaged from three independent replicates; top concentration 29 µM; read-out: Average AC50 (Log[M]), Dd2 (converted)"}, "[5]": {"tested_on": "P. falciparum Dd2 Cytb G131S", "assay": "SYBR Green ABS proliferation assay, NCGC00374598 selected clone C11", "format": "cell-based, Plasmodium falciparum", "conditions": "Plasmodium falciparum, DD2, […]; averaged from three independent replicates; top concentration 29 µM; read-out: Average AC50 (Log[M]), NCGC00374598 clone C11 (Cytb G131S) (converted)", "method_in_brief": "(§2)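 72 h SYBR Green-I read; % response = relative growth vs controls. Clones from resistance selection, cloned by limiting dilution; 37 °C, 5% CO2/5% O2/90% N2.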"}, "[6]": {"tested_on": "P. falciparum Dd2 Cytb V259L", "assay": "SYBR Green ABS proliferation assay, NCGC00473217 selected clone F06", "format": "cell-based, Plasmodium falciparum", "conditions": "Plasmodium falciparum", "method_in_brief": "as §2"}, "[7]": {"tested_on": "P. falciparum Dd2 Cytb A122D", "assay": "SYBR Green ABS proliferation assay, NCGC00473217 selected clone F12", "format": "cell-based, Plasmodium falciparum", "conditions": "Plasmodium falciparum, DD2, […]; averaged from three independent replicates; top concentration 29 µM; read-out: Average AC50 (Log[M]), NCGC00473217 clone F12 (Cytb A122D) (converted)", "method_in_brief": "as §2"}, "[8]": {"tested_on": "P. falciparum Dd2 Cytb F123L", "assay": "SYBR Green ABS proliferation assay, NCGC00473217 selected clone G08", "format": "cell-based, Plasmodium falciparum", "conditions": "Plasmodium falciparum", "method_in_brief": "as §2"}}, "note": "“And” between values parts separate entries of the source, which are not always exact repeats. Equal entries are not always repeated. Where two headings read alike, the source gives them in different places."}
{"smiles": "COC(=O)c1ccnc2cc(C(OCCN3CCCCC3)c3ccccc3Cl)sc12", "note": "(centres unmarked) [NCGC00481502-01]", "values": [{"measurement": "Individual replicates / Log AC50 (M)", "setting": "[1]", "value": "-5.0486 Log AC50 (M) and -4.8486 Log AC50 (M)"}, {"measurement": "AC50", "setting": "[1]", "value": 15.9, "unit": "µM"}, {"measurement": "Individual replicates / Log AC50 (M)", "setting": "[2]", "value": "-4.7486 Log AC50 (M)"}, {"measurement": "AC50", "setting": "[2]", "value": 17.8, "unit": "µM"}, {"measurement": "AC50", "setting": "[3]", "value": "1.26e-05", "unit": "M"}]}
{"smiles": "O=C(O)c1ccnc(-n2ncc(C(OCCN3CCCCC3)c3ccccc3Cl)c2-c2cccc(-c3ccccc3)c2)c1", "note": "(centres unmarked) [NCGC00481639-01]", "values": [{"measurement": "Individual replicates / Log AC50 (M)", "setting": "[1]", "value": "-5.3986 Log AC50 (M) and -5.5986 Log AC50 (M)"}, {"measurement": "Individual replicates / Log AC50 (M)", "setting": "[2]", "value": "-4.9986 Log AC50 (M) and -5.1486 Log AC50 (M)"}, {"measurement": "Calculated / Average Log AC50 (M)", "setting": "[3]", "value": -5.482, "unit": "M"}]}
{"smiles": "O=C(O)c1ccnc(-n2ncc(C(OCCN3CCCCC3)c3ccccc3Cl)c2-c2cccc(-c3ccccc3)c2)c1", "note": "(centres unmarked) [NCGC00481640-01]", "values": [{"measurement": "Individual replicates / Log AC50 (M)", "setting": "[1]", "value": "-5.0486 Log AC50 (M) and -4.8986 Log AC50 (M) (2×)"}, {"measurement": "Individual replicates / Log AC50 (M)", "setting": "[2]", "value": "-4.7986 Log AC50 (M) and -4.8486 Log AC50 (M)"}, {"measurement": "Calculated / Average Log AC50 (M)", "setting": "[3]", "value": -4.9486, "unit": "M"}]}
{"smiles": "CC(C)(C)OC(=O)NC1CCN(c2cc(-c3ccc(Cl)cc3)[nH]n2)C1", "note": "(centres unmarked) [NCGC00490648-01]", "values": [{"measurement": "AC50", "setting": "[1]", "value": 11.3, "unit": "µM"}, {"measurement": "AC50", "setting": "[2]", "value": 10, "unit": "µM"}, {"measurement": "AC50", "setting": "[3]", "value": "1.59e-05", "unit": "M"}]}
{"smiles": "CCN(CCN(C)C)C(=O)c1cc(OCc2ccc(Cl)cc2C)n(-c2cc(C#N)ccn2)n1", "note": "[NCGC00493248-01]", "values": [{"measurement": "Individual replicates / Log AC50 (M)", "setting": "[1]", "value": "-5.0486 Log AC50 (M) and -5.0986 Log AC50 (M)"}, {"measurement": "AC50", "setting": "[1]", "value": 15.9, "unit": "µM"}, {"measurement": "Individual replicates / Log AC50 (M)", "setting": "[2]", "value": "-4.9486 Log AC50 (M) and -4.8486 Log AC50 (M)"}, {"measurement": "AC50", "setting": "[2]", "value": 11.3, "unit": "µM"}, {"measurement": "AC50", "setting": "[3]", "value": "1.04e-05", "unit": "M"}]}
{"smiles": "CC(C)OC(=O)c1ccnc2cc(C(OCCN3CCCCC3)c3cccc(NC(=O)/C=C/CN(C)C)c3)sc12", "note": "(centres unmarked) [NCGC00493268-01]", "values": [{"measurement": "Individual replicates / Log AC50 (M)", "setting": "[1]", "value": "-5.5986 Log AC50 (M) and -5.5486 Log AC50 (M)"}, {"measurement": "AC50", "setting": "[1]", "value": 5.03, "unit": "µM"}, {"measurement": "Individual replicates / Log AC50 (M)", "setting": "[2]", "value": "-5.4486 Log AC50 (M) and -5.1486 Log AC50 (M)"}, {"measurement": "AC50", "setting": "[3]", "value": "3.3e-06", "unit": "M"}]}
{"smiles": "Cc1nn2c(c1-c1ccccc1Oc1ccccc1)N(Cc1ccccc1)CCC2", "note": "[NCGC00499717-01]", "values": [{"measurement": "Individual replicates / Log AC50 (M)", "setting": "[1]", "value": "-4.9986 Log AC50 (M) and -4.7486 Log AC50 (M)"}, {"measurement": "AC50", "setting": "[1]", "value": 15.9, "unit": "µM"}, {"measurement": "Individual replicates / Log AC50 (M)", "setting": "[2]", "value": "-4.7986 Log AC50 (M)"}, {"measurement": "AC50", "setting": "[2]", "value": 15.9, "unit": "µM"}, {"measurement": "AC50", "setting": "[3]", "value": "1.42e-05", "unit": "M"}]}
{"smiles": "CCCN1C(CC(C)C)=N[S+](=O)([O-])c2cc(NC(=O)C3CC3)ccc21", "note": "[NCGC00510045-01]", "values": [{"measurement": "AC50", "setting": "[4]", "value": "4.32e-06", "unit": "M"}, {"measurement": "AC50", "setting": "[5]", "value": "3.99e-06", "unit": "M"}, {"measurement": "AC50", "setting": "[6]; DD2, […], averaged from three independent replicates, top concentration 29 µM, read-out: Average AC50 (Log[M]), NCGC00473217 clone F06 (Cytb V259L) (converted)", "value": "3.05e-06", "unit": "M"}, {"measurement": "AC50", "setting": "[7]", "value": "4.32e-06", "unit": "M"}, {"measurement": "AC50", "setting": "[8]; DD2, […], averaged from three independent replicates, top concentration 29 µM, read-out: Average AC50 (Log[M]), NCGC00473217 clone G08 (Cytb F123L) (converted)", "value": "1.12e-05", "unit": "M"}, {"measurement": "Individual replicates / Log AC50 (M)", "setting": "[1]", "value": "-5.8486 Log AC50 (M)"}, {"measurement": "AC50", "setting": "[1]", "value": 0.894, "unit": "µM"}, {"measurement": "Individual replicates / Log AC50 (M)", "setting": "[2]", "value": "-5.2986 Log AC50 (M) and -5.4486 Log AC50 (M)"}, {"measurement": "AC50", "setting": "[2]", "value": 3.99, "unit": "µM"}, {"measurement": "AC50", "setting": "[3]", "value": "1.22e-06", "unit": "M"}]}
{"smiles": "O=C1c2ccccc2C(=O)C1c1ccc(C(F)(F)F)cc1", "note": "[NCGC00510065-01]", "values": [{"measurement": "Individual replicates / Log AC50 (M)", "setting": "[1]", "value": "-4.7486 Log AC50 (M) (2×) and -5.0986 Log AC50 (M)"}, {"measurement": "Individual replicates / Log AC50 (M)", "setting": "[2]", "value": "-4.6986 Log AC50 (M) and -4.7486 Log AC50 (M)"}, {"measurement": "AC50", "setting": "[2]", "value": 17.8, "unit": "µM"}, {"measurement": "AC50", "setting": "[3]", "value": "1.36e-05", "unit": "M"}]}
{"smiles": "CC(C)(C)OC(=O)N1CCc2nc(C3CC3)nc(O)c2CC1", "note": "[NCGC00510066-01]", "values": [{"measurement": "AC50", "setting": "[6]; DD2, cytochrome b mutant line, third value triple, c9, […], read-out: log AC50, mean (converted)", "value": "8.93e-09", "unit": "M"}, {"measurement": "AC50", "setting": "[8]; DD2, cytochrome b mutant line, fifth value triple, c15, […], read-out: log AC50, mean (converted)", "value": "2.99e-06", "unit": "M"}, {"measurement": "AC50", "setting": "[3]", "value": "8.94e-06", "unit": "M"}]}
{"smiles": "CCCN1C(CC(C)C)=N[S+](=O)([O-])c2cc(NC(=O)c3ccccc3)ccc21", "note": "[NCGC00510420-01]", "values": [{"measurement": "Individual replicates / Log AC50 (M)", "setting": "[1]", "value": "-6.5486 Log AC50 (M) and -6.1986 Log AC50 (M) and -6.2986 Log AC50 (M)"}, {"measurement": "Individual replicates / Log AC50 (M)", "setting": "[2]", "value": "-6.0486 Log AC50 (M) and -5.5486 Log AC50 (M) and -5.8486 Log AC50 (M)"}, {"measurement": "AC50", "setting": "[3]", "value": "4.48e-07", "unit": "M"}]}
{"smiles": "O=C(Cc1ccc(O)cc1)N1CCC2(C1)CN(c1ccccc1)C2", "note": "[NCGC00510421-01]", "values": [{"measurement": "Individual replicates / Log AC50 (M)", "setting": "[1]", "value": "-4.9486 Log AC50 (M)"}, {"measurement": "AC50", "setting": "[1]", "value": 14.2, "unit": "µM"}, {"measurement": "Individual replicates / Log AC50 (M)", "setting": "[2]", "value": "-4.7986 Log AC50 (M) and -4.7486 Log AC50 (M)"}, {"measurement": "AC50", "setting": "[2]", "value": 14.2, "unit": "µM"}, {"measurement": "AC50", "setting": "[3]", "value": "1.26e-05", "unit": "M"}]}
